The source of these data is US8389508B2 (Glaxo Group Limited, priority 2010, dated 2013).

Each structure is given as a SMILES string. Counter-ions that a name gives are not always drawn.

The target of the first assay is T1, human Endothelial Differentiation Gene 1 (EDG1), S1P1 receptor (Homo sapiens, UniProt P21453).
T1 construct: TEV protease site; Gal4-VP16 transcription factor; expressed in transfected cells; host or cells: EDG1-bla/U2OS (Tango GPCR-bla U2OS parental cell line)
T1 sequence (P21453 whole entry, the tested form may be a part): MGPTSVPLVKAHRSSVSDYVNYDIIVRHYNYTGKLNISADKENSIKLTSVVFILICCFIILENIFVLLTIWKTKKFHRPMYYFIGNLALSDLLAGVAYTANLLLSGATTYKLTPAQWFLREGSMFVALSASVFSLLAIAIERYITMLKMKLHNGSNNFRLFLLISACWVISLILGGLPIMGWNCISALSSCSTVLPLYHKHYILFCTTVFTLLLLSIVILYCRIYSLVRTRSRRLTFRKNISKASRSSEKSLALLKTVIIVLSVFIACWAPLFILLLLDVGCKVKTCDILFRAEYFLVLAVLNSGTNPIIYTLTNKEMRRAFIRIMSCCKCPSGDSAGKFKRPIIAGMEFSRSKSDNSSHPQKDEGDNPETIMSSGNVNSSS
Put plainly: S1P1 Assay (Tango EDG1-bla/U2OS beta-lactamase reporter, agonist dose response). It counts as cell-based. Particulars: EDG1-bla/U2OS cells, blue/green emission ratio, 10 point dose response, free base or salt form; read-out: pEC50 (S1P1 assay) (converted). How it is done: Recombinant EDG1-bla/U2OS cells (contain the human Endothelial Differentiation Gene 1 (EDG1) linked to a TEV protease site and a Gal4-VP16 transcription factor stably integrated into the Tango GPCR-bla U2OS parental cell line) were harvested from growth medium and passaged into assay medium (Invitrogen Freestyle Expression Medium). The cells were starved for 24 hours at 37° C., 5% CO2, harvested and resuspended in assay medium at a density of ˜200,000 cells/ml. All test compounds were dissolved in DMSO at a concentration of 10 mM and were prepared in 100% DMSO to provide 10 point dose response curves. Test compounds in the free base or in a salt form were prepared by Velocity11 Bravo automation (Agilent) were added to wells in columns 2-11 and 13-22; DMSO was added to wells in columns 12 and 23 as unstimulated controls and assay medium was added to wells in columns 1 and 24 as cell-free controls. An S1P1 agonist was added to wells in row 2, columns 2-11 as stimulated controls and test compounds were added to wells in row 2, columns 13-22 and rows 3-15, columns 2-11/13-22 (row 1 and 16 were empty and not used). Compounds in solution were added to the assay plate (Greiner 781090) using an Echo (Labcyte) dose-response program (50 nl/well). The unstimulated and cell-free controls were loaded with 50 nl/well pure DMSO to ensure that the DMSO concentration was constant across the plate for all assays. 50 μl of the cell suspension was added to each well in columns 2-23 of the plate (˜10,000 cells per well). 50 μl of assay medium was added to each well in the cell-free controls (columns 1 and 24). The cells were incubated overnight at 37° C./5% CO2.
(§1) 10 μl of 6× substrate mixture (LiveBLAzer™-FRET B/G substrate (CCF4-AM) Cat # K1096 from Invitrogen, Inc.) was added to each well using Bravo automation and the plates incubated at room temperature for 2 h in the dark. The plate was finally read on EnVision using one excitation channel (409 nm) and two emission channels (460 nm and 530 nm).
(§2) The blue/green emission ratio (460 nm/530 nm) was calculated for each well, by dividing the background-subtracted Blue emission values by the background-subtracted Green emission values. The dose response curve is based on sigmoidal dose-response model. All ratio data was normalized based upon the maximum emission ratio of positive control and minimum emission ratio of negative control (DMSO) on each plate. The intrinsic activity (IA) of each compound is defined as relative response normalised to a reference compound, whose maximum response is defined as 100% after curve fitting.
With `CCc1c(CN2CC(C(=O)O)C2)cccc1-c1nnc(-c2ccc(OC(C)C)c(C(F)(F)F)c2)s1` [Example 2, 1-[(2-ethyl-3-{5-[4-[(1-methylethyl)oxy]-3-(trifluoromethyl)phenyl]-1,3,4-thiadiazol-2-yl}phenyl)methyl]-3-azetidinecarboxylic acid], the EC50 was less than 1 nM.
In the case of `CCc1c(CCN2CC(C(=O)O)C2)cccc1-c1nnc(-c2ccc(OC(C)C)c(Cl)c2)s1` [Example 6, 1-{2-[3-(5-{3-chloro-4-[(1-methylethyl)oxy]phenyl}-1,3,4-thiadiazol-2-yl)-2-ethylphenyl]ethyl}-3-azetidinecarboxylic acid trifluoroacetate], the EC50 was less than 1 nM.
Consider `CCc1c(CN2CC(C(=O)O)C2)cccc1-c1nsc(-c2ccc(OC(C)C)c(C(F)(F)F)c2)n1` [Example 19, 1-[(2-ethyl-3-{5-[4-[(1-methylethyl)oxy]-3-(trifluoromethyl)phenyl]-1,2,4-thiadiazol-3-yl}phenyl)methyl]-3-azetidinecarboxylic acid], for which the EC50 is less than 1 nM.
For the compound `CCc1c(CCN2CCC(C(=O)O)CC2)cccc1-c1nsc(-c2ccc(OC(C)C)c(C(F)(F)F)c2)n1` [Example 21, 1-[2-(2-ethyl-3-{5-[4-[(1-methylethyl)oxy]-3-(trifluoromethyl)phenyl]-1,2,4-thiadiazol-3-yl}phenyl)ethyl]-4-piperidinecarboxylic acid], the EC50 was less than 1 nM.
On to `CCc1c(CCN2CC(C(=O)O)C2)cccc1-c1nsc(-c2ccc(OC(C)C)c(C(F)(F)F)c2)n1` [Example 22, 1-[2-(2-ethyl-3-{5-[4-[(1-methylethyl)oxy]-3-(trifluoromethyl)phenyl]-1,2,4-thiadiazol-3-yl}phenyl)ethyl]-3-azetidinecarboxylic acid], for which the EC50 was less than 1 nM.
With `CCc1c(CCN2CC(C(=O)O)C2)cccc1-c1nsc(-c2ccc(OC(C)C)c(Cl)c2)n1` [Example 23, 1-{2-[3-(5-{3-chloro-4-[(1-methylethyl)oxy]phenyl}-1,2,4-thiadiazol-3-yl)-2-ethylphenyl]ethyl}-3-azetidinecarboxylic acid trifluoroacetate], the EC50 was less than 1 nM.
On to `CCc1c(CCN2CCC(C(=O)O)CC2)cccc1-c1nsc(-c2ccc(OC(C)C)c(Cl)c2)n1` [Example 24, 1-{2-[3-(5-{3-chloro-4-[(1-methylethyl)oxy]phenyl}-1,2,4-thiadiazol-3-yl)-2-ethylphenyl]ethyl}-4-piperidinecarboxylic acid trifluoroacetate], for which the EC50 was less than 1 nM.
Still for that read-out and setting: next, `CCc1c(CN2CC(C(=O)O)C2)cccc1-c1nsc(-c2ccc(OC(C)C)c(Cl)c2)n1` [Example 25, 1-{[3-(5-{3-chloro-4-[(1-methylethyl)oxy]phenyl}-1,2,4-thiadiazol-3-yl)-2-ethylphenyl]methyl}-3-azetidinecarboxylic acid trifluoroacetate]: no more than 10 nM.
Consider `CCc1c(CN2CC(C(=O)O)C2)cccc1-c1nsc(-c2ccc(CC(C)C)c(C#N)c2)n1` [Example 27, 1-[(3-{5-[3-cyano-4-(2-methylpropyl)phenyl]-1,2,4-thiadiazol-3-yl}-2-ethylphenyl)methyl]-3-azetidinecarboxylic acid trifluoroacetate], for which the EC50 is no more than 10 nM.
As to `CCc1c(CCN2CCC(C(=O)O)CC2)cccc1-c1nsc(-c2ccc(CC(C)C)c(C#N)c2)n1` [Example 29, 1-[2-(3-{5-[3-cyano-4-(2-methylpropyl)phenyl]-1,2,4-thiadiazol-3-yl}-2-ethylphenyl)ethyl]-4-piperidinecarboxylic acid trifluoroacetate], the EC50 is less than 1 nM.
The same measure, in the same setting: under `CCc1c(CN2CCC(C(=O)O)CC2)cccc1-c1cnc(-c2ccc(OC(C)C)c(C#N)c2)s1` [Example 35, 1-{[3-(2-{3-cyano-4-[(1-methylethyl)oxy]phenyl}-1,3-thiazol-5-yl)-2-ethylphenyl]methyl}-4-piperidinecarboxylic acid trifluoroacetate] stands no more than 10 nM; under `CCc1c(CCN2CCC(C(=O)O)CC2)cccc1-c1cnc(-c2ccc(OC(C)C)c(Cl)c2)s1` [Example 40, 1-{2-[3-(2-{3-chloro-4-[(1-methylethyl)oxy]phenyl}-1,3-thiazol-5-yl)-2-ethylphenyl]ethyl}-4-piperidinecarboxylic acid trifluoroacetate], less than 1 nM; under `CCc1c(CCN2CCC(C(=O)O)C2)cccc1-c1cnc(-c2ccc(OC(C)C)c(C#N)c2)s1` (stereo not shown) [Example 90], less than 1 nM.

Another assay deals with T2, human Endothelial Differentiation G-protein Coupled Receptor 3 (EDG3), S1P3 receptor (Homo sapiens, UniProt Q99500).
T2 construct: expressed in transfected cells; host or cells: GeneBLAzer EDG3-Ga15-NFAT-bla HEK 293T
T2 sequence (Q99500 whole entry): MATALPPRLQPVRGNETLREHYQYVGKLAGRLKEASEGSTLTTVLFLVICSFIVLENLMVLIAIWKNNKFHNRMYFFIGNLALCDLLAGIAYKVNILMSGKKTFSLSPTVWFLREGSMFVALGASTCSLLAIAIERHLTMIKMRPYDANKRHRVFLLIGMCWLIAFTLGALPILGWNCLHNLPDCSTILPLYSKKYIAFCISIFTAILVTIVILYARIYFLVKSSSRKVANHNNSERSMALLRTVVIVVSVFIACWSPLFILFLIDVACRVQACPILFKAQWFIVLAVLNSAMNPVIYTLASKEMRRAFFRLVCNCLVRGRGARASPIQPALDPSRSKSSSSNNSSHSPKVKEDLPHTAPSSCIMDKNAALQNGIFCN
The assay can be described thus: S1P3 Assay (GeneBLAzer EDG3-Ga15-NFAT-bla HEK 293T beta-lactamase reporter, agonist dose response). The note with it: EDG3-Ga15-NFAT-bla HEK 293T cells, blue/green emission ratio, 10 point dose response, free base or salt form; read-out: pEC50 (S1P3 assay) (converted). In kind it is cell-based. As for the experimental part: GeneBLAzer EDG3-Ga15-NFAT-bla HEK 293T cells (contain the human Endothelial Differentiation G-protein Coupled Receptor 3 (EDG3) and a beta-lactamase reporter gene under control of a NFAT response element and a promiscuous G Protein, Ga15, stably integrated into the GeneBLAzer Ga15-NFAT-bla HEK 293T cell line) were harvested from growth medium and suspended in assay medium (90% DMEM, 10% Charcoal-stripped FBS, 0.1 mM NEAA, 25 mM HEPES (pH 7.3), 100 U/ml penicillin, 100 μg/ml streptomycin) at a density of […]. All test compounds were dissolved in DMSO at a concentration of 10 mM and were prepared in 100% DMSO to provide 10 point dose response curves. Test compounds in the free base or in a salt form were prepared by Velocity 11 Bravo automation (Agilent) were added to wells in columns 2-11 and 13-22; DMSO was added to wells in columns 12 and 23 as unstimulated controls and assay medium was added to wells in columns 1 and 24 as cell-free controls. An S1P3 agonist was added to wells in row 2, columns 2-11 as stimulated controls and test compounds were added to wells in row 2, columns 13-22 and rows 3-15, columns 2-11/13-22 (row 1 and 16 were empty and not used). Compounds in solution were added to the assay plate (Greiner 781090) using an Echo (Labcyte) dose-response program (50 nl/well). The unstimulated and cell-free controls were loaded with 50 nl/well pure DMSO to ensure that the DMSO concentration was constant across the plate for all assays.
50 μl of the cell suspension was added to each well in columns 2-23 of the plate (˜10,000 cells per well). 50 μl of assay medium was added to each well in the cell-free controls (columns 1 and 24). The cells were incubated overnight at 37° C./5% CO2.
as §1, §2
As for `CCc1c(CN2CCC(C(=O)O)CC2)cccc1-c1nnc(-c2ccc(OC(C)C)c(Cl)c2)s1` [Example 3, 1-{[3-(5-{3-chloro-4-[(1-methylethyl)oxy]phenyl}-1,3,4-thiadiazol-2-yl)-2-ethylphenyl]methyl}-4-piperidinecarboxylic acid trifluoroacetate], the EC50 is greater than 3160 nM.
With `CCc1c(CN2CCC(C(=O)O)CC2)cccc1-c1nsc(-c2ccc(OC(C)C)c(C#N)c2)n1` [Example 16, 1-{[3-(5-{3-cyano-4-[(1-methylethyl)oxy]phenyl}-1,2,4-thiadiazol-3-yl)-2-ethylphenyl]methyl}-4-piperidinecarboxylic acid trifluoroacetate], the EC50 is greater than 10000 nM.
Consider `CCc1c(CN2CCC(CC(=O)O)CC2)cccc1-c1nsc(-c2ccc(OC(C)C)c(C(F)(F)F)c2)n1` [Example 20, {1-[(2-ethyl-3-{5-[4-[(1-methylethyl)oxy]-3-(trifluoromethyl)phenyl]-1,2,4-thiadiazol-3-yl}phenyl)methyl]-4-piperidinyl}acetic acid], for which the EC50 was greater than 10000 nM.
The same measure, in the same setting: under `CCc1c(CN2CCC(C(=O)O)CC2)cccc1-c1nsc(-c2ccc(CC(C)C)c(C#N)c2)n1` [Example 28, 1-[(3-{5-[3-cyano-4-(2-methylpropyl)phenyl]-1,2,4-thiadiazol-3-yl}-2-ethylphenyl)methyl]-4-piperidinecarboxylic acid] stands greater than 10000 nM.
On to `CCc1c(CCN2CCC(C(=O)O)C2)cccc1-c1nsc(-c2ccc(OC(C)C)c(Cl)c2)n1` (stereo not shown) [Example 67], for which the EC50 is greater than 3160 nM.
`CCc1c(CCN2CC[C@H](C(=O)O)C2)cccc1-c1nsc(-c2ccc(OC(C)C)c(Cl)c2)n1` [Example 68]: the EC50 was greater than 3160 nM.
In the case of `CCc1c(CCN2CCC[C@H](C(=O)O)C2)cccc1-c1nsc(-c2ccc(OC(C)C)c(Cl)c2)n1` [Example 71], the EC50 is greater than 3160 nM.
`CCc1c(CN2CCC[C@H]2C(=O)O)cccc1-c1cnc(-c2ccc(OC(C)C)c(C#N)c2)s1` [Example 81, 1-{[3-(2-{3-cyano-4-[(1-methylethyl)oxy]phenyl}-1,3-thiazol-5-yl)-2-ethylphenyl]methyl}-L-proline trifluoroacetate]: the EC50 is greater than 10000 nM.
Regarding `CCc1c(CN2C[C@H](O)C[C@H]2C(=O)O)cccc1-c1cnc(-c2ccc(OC(C)C)c(C#N)c2)s1` [Example 85], the EC50 was greater than 10000 nM.
